Literature values, collected in patent US20110060000A1, “ACRIDINE ANALOGS IN THE TREATMENT OF GLIOMAS” (priority 2009, published 2011).

Test system: gliomas
Details: in association with established anti-glioma medications; cited from earlier work

SMILES: CCN(CC)CCCC(C)Nc1ccnc2cc(Cl)ccc12 (stereo not shown) [Chloroquine]
- patient survival: patient survival was significantly prolonged
